Assay results as given in patent US20200138764A1, “METHODS AND DEVICES FOR ACTIVATING ADIPOSE TISSUE” (The Procter & Gamble Company, priority 2018, published 2020).

Test system: Human subcutaneous pre-adipocytes
Test: Lipogenesis Assay (AdipoRed staining)
Assay type: cell-based
Conditions: AdipoRed fluorescence, NI = no inhibition at concentration less than/equal to 1 mM
Protocol: Lipogenesis is the process by which acetyl-CoA is converted to fatty acid. Through lipogenesis and subsequent triglyceride synthesis, energy can be stored in the form of adipose tissue (i.e. fats). To determine what effect, if any, activating compounds (shown in TABLE 1) had on lipogenesis, the protocol listed below was used.
To determine whether the activating compounds (shown in TABLE 1) impacted the formation of white adipocytes from pre-adipocytes, a lipogenesis assay was performed. The cells utilized in the protocol were cryo-preserved Human subcutaneous pre-adipocytes superlot (Zen-Bio, Inc., Research Triangle Park, N.C., Cat # SP-F-SL). The growth media used was PM-1 (Zen-Bio, Inc., Research Triangle Park, N.C., cat # PM-1) plus 5 ng/mL Epidermal Growth Factor (EGF). The PM-1+5 ng/mL EGF was prepared by adding 12.5 uL of 200 ug/mL EGF stock to 500 mL PM-1. The differentiation media used was DM-2 (Zen-Bio, Inc., Research Triangle Park, N.C., cat # DM-2). The adipocyte maintenance media used was AM-1 (Zen-Bio, Inc., Research Triangle Park, N.C., cat # AM-1).
First, the human subcutaneous pre-adipocyte cells were thawed in a 37° C. water bath. Next, the thawed pre-adipocyte cells were added to 9 mL of growth medium (PM-1) at 20° C. in a 15 mL polypropylene tube (Bioexpress, Corning, Corning, N.Y.). The tube was centrifuged at 280×g (˜1100 rpm) at 20° C. for 5 min. After 5 min, the supernatant was removed and the accumulated solids were re-suspended in 2 mL of PM-1 using trituration. The suspension of cells was counted under 100× magnification using a Cyto C-Chip hemacytometer (Incyto, Seoul, South Korea, cat # DHC-N01-5). In order to proceed, 15-50 cells per 1×1 mm square in hemacytometer was needed. If, the number of cells per square was not met, 6.7×10^5 (670,000) cells per T75 flask (Bioexpress, Corning, Corning, N.Y.) were added to each square and the suspension was diluted to 20 mL with PM-1. Every other day, new media was added to replace media removed due to metabolism by the cells. The cells were re-counted as described previously. Cells were grown to 80-90% confluence, which took approximately 4-5 days. 80-90% confluence is determined by visual inspection of the area of the flask occupied by the cells. When 80-90% of the flask area has been occupied, cells are at 80-90% confluence. Cell colonies were then split 1:6 by harvesting from a single flask and equally dividing the harvested cells into six flasks. Colonies were not allowed to exceed 3 passages and were not grown to complete confluence. The pre-adipocytes were grown until they contact with other cells in the flask to aid differentiation into white or brown adipocytes.
After the pre-adipocytes were sufficiently grown to 90% confluence, the cells were ready for differentiation and treatment with an activating compound. Cells were washed with 3 mL of PBS and detached using 3 mL of Trypsin EDTA. The cells were incubated at 37° C. for 5 minutes. Next, the cells were centrifuged at 280×g at 20° C. for 5 minutes. The supernatant was discarded and the resulting pellet was re-suspended in 10 mL of PM-1 using trituration. Cells were counted at 100× magnification and the cells were diluted to 86,667 cells/mL (˜13,000 cells/150 μL) by adding the necessary amount of PM-1 to achieve the desired concentration. Upon addition of PM-1, samples were swirled by hand to evenly disperse the cells prior to plating.
Once confluence is reached, 150 μL of differentiation media (DM-2) was added (DAY 0). Samples were incubated at 37° C. for 6 days. On DAY 6, 90 μL of media was removed from each sample via aspiration, without touching the bottom of the well. Next, 140 μL of adipocyte maintenance medium (AM-1) was added. The AM-1 ran down the side of well. On DAY 6, activating compounds were added (2 μL of 10 mM activating compound) to give a final concentration of 100 μM of activating compounds. […]

CCOC(=O)CNC(=O)[C@@H]1C[C@H](C)CC[C@H]1C(C)C [WS-5]
IC50: 600 µM
IC50 (Homo sapiens): 500 µM

CC(C)[C@@H]1CC[C@@H](C)C[C@H]1C(=O)NC[C@@H](NC(=O)[C@H](C)N)c1ccccc1 [Formula III]
IC50 (Homo sapiens): 25 µM

CC1CCC(C(C)C)C(O)C1 (centres unmarked) [Menthol]
Lipogenesis IC50: no inhibition
IC50 (Homo sapiens): > 1000 µM
